Results from US20260034252A1, “FIBROBLAST ACTIVATION PROTEIN-TARGETED COMPOSITIONS AND METHODS OF USE THEREOF” (Ratio Therapeutics, Inc., priority 2022, published 2026).

Columns and labels:
FAP = FAP (Homo sapiens (Human), UniProt Q12884); test: FAP protease inhibition assay (FAM-labeled substrate peptide, microfluidic electrophoresis); type: biochemical; settings: enzyme 0.5 nM, substrate peptide 1 uM, 15 minutes pre-incubation, three hours for human FAP
Description: Protease reactions were assembled in 384 well plates (Greiner) in a total volume of 20 uL as described below.
Recombinant proteins were pre-diluted in assay buffer comprising of 100 mM HEPES, pH 7.5, 0.1% BSA, 0.01% Triton X-100, 1 mM DTT, and dispensed into 384 well plate (10 uL per well). Test compounds were serially pre-diluted in DMSO and added to the assay wells by acoustic dispensing (Labcyte Echo 550). Control samples (0%-inhibition in the absence of inhibitor, DMSO only) and 100%-inhibition (in the absence of enzyme) were assembled in replicates of four and used to calculate the %-inhibition in the presence of compounds. Concentration of DMSO was equalized to 1% in all samples.
Compounds were pre-incubated with enzymes for 15 minutes. Human FAP was obtained from Enzo, catalogue number BML-SE409-0010. […] Final concentration of enzymes were 0.5 nM. Final concentration of substrate peptides was 1 uM.
The reactions were allowed to proceed at room temperature. Incubation time was three hours for human FAP, 0.5 hours for mouse FAP.
Terminated plates were analyzed using a microfluidic electrophoresis instrument (Caliper LabChip® 3000, Caliper Life Sciences/Perkin Elmer). A change in relative intensity of the peptide substrate and cleaved product was the parameter measured. Activity in each test sample was determined as the product to sum ratio (PSR):P/(S+P), where P is the peak height of the product, and S is the peak height of the substrate. Percent inhibition (Pinh) was determined using the following equation: Pinh=(PSR0% inh−PSRcompound)/(PSR0% inh−PSR100% inh)*100, in which: PSRcompound is the product/sum ratio in the presence of compound, PSR0% inh is the product/sum ratio in the absence of compound and the PSR100% inh is the product/sum ratio in the absence of the enzyme.

[1] = tested on: U-87 (human glioblastoma) cells; test: Detection of tumors in BALB/c nude mice transplanted with U-87 cells; type: in vivo; settings: 1 μg intravenous injection, one hour
Description: BALB/c nude mice were transplanted with approximately 10^7 U-87 (human glioblastoma) cells and the tumors allowed to develop. 1 μg of an ^18F-labeled FAP-targeted agent of the invention, RTX-1312S (prepared according to Example 13), was administered to the mice by intravenous injection (e.g., tail vein), which were then sacrificed after one hour. FIG. 1a illustrates tumor binding of the ^18F-labeled FAP-targeted compound in mice.

Sequence of FAP (Q12884 whole entry): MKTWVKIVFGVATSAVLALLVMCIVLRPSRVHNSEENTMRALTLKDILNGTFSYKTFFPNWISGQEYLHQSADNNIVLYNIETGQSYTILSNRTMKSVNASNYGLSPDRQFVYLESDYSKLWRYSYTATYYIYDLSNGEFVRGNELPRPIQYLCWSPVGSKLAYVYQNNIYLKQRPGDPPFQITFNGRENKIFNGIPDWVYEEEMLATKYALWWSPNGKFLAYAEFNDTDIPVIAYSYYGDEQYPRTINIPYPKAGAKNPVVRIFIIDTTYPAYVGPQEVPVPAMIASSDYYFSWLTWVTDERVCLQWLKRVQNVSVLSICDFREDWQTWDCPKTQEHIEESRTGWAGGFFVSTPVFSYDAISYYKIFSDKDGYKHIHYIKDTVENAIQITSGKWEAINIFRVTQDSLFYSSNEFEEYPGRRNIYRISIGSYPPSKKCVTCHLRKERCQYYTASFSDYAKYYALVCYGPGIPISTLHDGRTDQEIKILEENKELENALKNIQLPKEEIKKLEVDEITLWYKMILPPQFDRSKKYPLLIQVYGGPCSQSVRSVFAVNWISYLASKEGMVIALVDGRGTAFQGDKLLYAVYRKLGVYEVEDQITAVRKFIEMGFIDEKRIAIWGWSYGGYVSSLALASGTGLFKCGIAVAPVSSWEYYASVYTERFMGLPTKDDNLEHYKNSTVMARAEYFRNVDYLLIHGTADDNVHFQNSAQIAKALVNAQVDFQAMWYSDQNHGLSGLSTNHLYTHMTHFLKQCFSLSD

IC50 (FAP): < 0.1 nM | tumor binding of 18F-labeled compound [1]: tumor binding
Compound: CC(=O)NCCCC[C@H](NC(=O)[C@H](CCCCNC(=S)Nc1ccc(CC2CN(CC(=O)O)CCN(CC(=O)O)CCN2CC(=O)O)cc1)NC(=O)CCOCCOCCOCCNC(=O)COc1ccc2c(C(=O)NCC(=O)N3CCC[C@H]3C#N)ccnc2c1)C(=O)O (stereo partly drawn) [RTX-1312S, (S)-2-[(S)-2-(3-{2-[2-(2-{2-[4-({2-[(S)-2-Cyano-1-pyrrolidinyl]-2-oxoethylamino}carbonyl)-7-quinolyloxy]acetylamino}ethoxy)ethoxy]ethoxy}propionylamino)-6-[3-(p-{[1,4,7-tris(carboxymethyl)-1,4,7-triazonan-2-yl]methyl}phenyl)thioureido]hexanoylamino]-6-acetylaminohexanoic Acid]
